For orientation: IC50 means the concentration that gives 50% inhibition. A word on the viability, T/C: it is the result in the treated group divided by that in the control group, in per cent.

The structures appear in SMILES notation. Several values for one entry are separate records, joined by “and”; a condition that tells them apart may be missing. Equal entries are not always repeated.

The test system of the test is 349418-098-R-PDC complex spheroid viability. The test is described as follows: Anticancer human tumor 349418-098-R-PDC patient-derived lung adenocarcinoma cell line growth inhibition. The note with it: for viability, T/C: stronger effect = lower value. A digest of the protocol: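 Complex spheroids of tumor cells with HUVEC and human MSCs, exposed to iadademstat combined with other agents. Each agent tested in half-log steps from near clinical Cmax (else 10 microM top), DMSO ≤0.25%.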

Setting [1] is: curve of first compound, second compound 0.1 µM.
[2] abbreviates: curve of first compound, second compound 0.316 µM.
The mark [3] stands for this setting: curve of first compound, second compound 1 µM.
[4] abbreviates: curve of first compound, second compound 3.16 µM.
Setting [5] is: curve of first compound, second compound 10 µM.
The mark [6] stands for this setting: second compound 0.1 µM, first compound 0.000949 µM.
Setting [7] is: second compound 0.1 µM, first compound 0.003 µM.
[8] abbreviates: second compound 0.1 µM, first compound 0.00949 µM.
The mark [9] stands for this setting: second compound 0.1 µM, first compound 0.03 µM.
Where [10] appears, read: second compound 0.1 µM, first compound 0.0949 µM.
The mark [11] stands for this setting: second compound 0.1 µM, first compound 0.3 µM.
Setting [12] is: second compound 0.316 µM, first compound 0.000949 µM.
The mark [13] stands for this setting: second compound 0.316 µM, first compound 0.003 µM.
[14] abbreviates: second compound 0.316 µM, first compound 0.00949 µM.
[15] abbreviates: second compound 0.316 µM, first compound 0.03 µM.
Setting [16] is: second compound 0.316 µM, first compound 0.0949 µM.
[17] abbreviates: second compound 0.316 µM, first compound 0.3 µM.
Where [18] appears, read: second compound 1 µM, first compound 0.000949 µM.
[19] abbreviates: second compound 1 µM, first compound 0.003 µM.
Setting [20] is: second compound 1 µM, first compound 0.00949 µM.
Where [21] appears, read: second compound 1 µM, first compound 0.03 µM.
[22] abbreviates: second compound 1 µM, first compound 0.0949 µM.
[23] abbreviates: second compound 1 µM, first compound 0.3 µM.
The mark [24] stands for this setting: second compound 3.16 µM, first compound 0.000949 µM.
[25] abbreviates: second compound 3.16 µM, first compound 0.003 µM.
Setting [26] is: second compound 3.16 µM, first compound 0.00949 µM.
[27] abbreviates: second compound 3.16 µM, first compound 0.03 µM.
Setting [28] is: second compound 3.16 µM, first compound 0.0949 µM.
Setting [29] is: second compound 3.16 µM, first compound 0.3 µM.
The mark [30] stands for this setting: second compound 10 µM, first compound 0.000949 µM.
Setting [31] is: second compound 10 µM, first compound 0.003 µM.
Setting [32] is: second compound 10 µM, first compound 0.00949 µM.
[33] abbreviates: second compound 10 µM, first compound 0.03 µM.
Where [34] appears, read: second compound 10 µM, first compound 0.0949 µM.
Where [35] appears, read: second compound 10 µM, first compound 0.3 µM.
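Further: spheroids exposed to agents for seven days before readout.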
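Wherever viability, T/C is given: 100% = DMSO vehicle control wells.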

For the compound `Nc1ncn(C2CC(O)C(CO)S2)c(=O)n1` (stereo not drawn) + NC1CCC(NC2CC2c2ccccc2)CC1, the IC50 reads like this: under setting [1], 18.5 nM; under setting [2], 19.2 nM; under setting [3], 20.3 nM; under setting [4], 19.2 nM; under setting [5], 12.4 nM. Moreover, the viability, T/C runs as follows: under setting [6], 107%; under setting [7], 85.5%; under setting [8], 71.7%; under setting [9], 34.7%; under setting [10], 19.6%; under setting [11], 8.78%. For the same compound, the viability, T/C is, setting by setting: under setting [12], 104%; under setting [13], 100%; under setting [14], 71.6%; under setting [15], 35.9%; under setting [16], 16.1%; under setting [17], 9.32%. In addition, the viability, T/C by setting is: under setting [18], 117%; under setting [19], 96.2%; under setting [20], 74.3%; under setting [21], 38.1%; under setting [22], 16.1%; under setting [23], 8.39%. For the same compound, the viability, T/C reads like this: under setting [24], 97.5%; under setting [25], 89.8%; under setting [26], 73.4%; under setting [27], 34.8%; under setting [28], 15.6%; under setting [29], 7.02%. In addition, the viability, T/C by setting is: under setting [30], 75.8%; under setting [31], 86%; under setting [32], 51.1%; under setting [33], 30.3%; under setting [34], 16%; under setting [35], 7.62%.

Turning to `Cn1ncnc1C1c2n[nH]c(=O)c3cc(F)cc(c23)NC1c1ccc(F)cc1` (stereo not drawn), the viability, T/C is 97.2% and 97.6% (compound 0.000316 µM); 93.6% and 102% (compound 0.001 µM); 101% and 98.2% (compound 0.00316 µM); 94.4% and 94.1% (compound 0.01 µM); 97.8% and 78.5% (compound 0.0316 µM); 89% and 77.8% (compound 0.1 µM). Also, the IC50 (curve of compound) was > 100 nM.

As for `Nc1ncn(C2CC(O)C(CO)S2)c(=O)n1` (stereo not drawn) + NC1CC1c1ccc(-c2cccc(O)c2)cc1, the IC50 was determined as 25 nM under setting [1]; 23.9 nM under setting [2]; 27.9 nM under setting [3]; 27.1 nM under setting [4]; 19.5 nM under setting [5]. Further, the viability, T/C by setting is: under setting [6], 113%; under setting [7], 112%; under setting [8], 87.1%; under setting [9], 42.6%; under setting [10], 15.4%; under setting [11], 5.99%. Further, the viability, T/C is, setting by setting: under setting [12], 112%; under setting [13], 106%; under setting [14], 93%; under setting [15], 39%; under setting [16], 12.2%; under setting [17], 6.04%. For the same compound, the viability, T/C was 117% under setting [18]; 107% under setting [19]; 96.8% under setting [20]; 46.3% under setting [21]; 13.5% under setting [22]; 5.81% under setting [23]. For the same compound, the viability, T/C by setting is: under setting [24], 115%; under setting [25], 115%; under setting [26], 96.3%; under setting [27], 44.6%; under setting [28], 17.3%; under setting [29], 6.89%. In addition, the viability, T/C by setting is: under setting [30], 87.2%; under setting [31], 81.6%; under setting [32], 75.4%; under setting [33], 34.5%; under setting [34], 14.5%; under setting [35], 5.54%.

With `NC1CC1c1ccc(-c2cccc(O)c2)cc1` (stereo not drawn), the viability, T/C (compound 1 µM) is 113% [middle of 25 runs]. For the setting “compound alone, run of 02/01/2022”, the IC50 is > 10000 nM.

As to `COc1ccc([C@@H](O)c2cc(-c3ncnc4cc(N5CCOCC5)ccc34)c(F)cc2Cl)nn1`, the viability, T/C runs as follows: (compound 0.0316 µM) 91.6% and 95.8%; (compound 0.1 µM) 79.4% and 83.2%; (compound 0.316 µM) 53.7% and 74.8%; (compound 1 µM) 29.1% and 41.5%; (compound 3.16 µM) 9.45% and 15%; (compound 10 µM) 6.34% and 4.43%. For the same compound, the IC50 (curve of compound) was 384 nM and 740 nM.

In the case of `Nc1ncn(C2CC(O)C(CO)O2)c(=O)n1` (stereo not drawn), the viability, T/C (compound 0.00316 µM) is 88.2% and 96.1%; the viability, T/C (compound 0.01 µM) is 59% and 91.5%; the viability, T/C (compound 0.0316 µM) is 47.1% and 75.4%; the viability, T/C (compound 0.1 µM) was 32.5% and 45.5%; the viability, T/C (compound 0.316 µM) is 27.8% and 37.1%; the viability, T/C (compound 1 µM) was 23.9% and 27.6%. The IC50 (curve of compound) is 21.3 nM and 89.3 nM.

Consider `COc1ccc([C@@H](O)c2cc(-c3ncnc4cc(N5CCOCC5)ccc34)c(F)cc2Cl)nn1` + NC1CCC(NC2CC2c2ccccc2)CC1, for which the IC50 amounted to 423 nM under setting [1]; 471 nM under setting [2]; 468 nM under setting [3]; 520 nM under setting [4]; 299 nM under setting [5]. In addition, the viability, T/C by setting is: (second compound 0.1 µM, first compound 0.0316 µM) 102%; (second compound 0.1 µM, first compound 0.1 µM) 109%; (second compound 0.1 µM, first compound 0.316 µM) 52.1%; (second compound 0.1 µM, first compound 1 µM) 30.2%; (second compound 0.1 µM, first compound 3.16 µM) 8.02%; (second compound 0.1 µM, first compound 10 µM) 5.61%. The viability, T/C runs as follows: (second compound 0.316 µM, first compound 0.0316 µM) 112%; (second compound 0.316 µM, first compound 0.1 µM) 95.1%; (second compound 0.316 µM, first compound 0.316 µM) 63.3%; (second compound 0.316 µM, first compound 1 µM) 26.6%; (second compound 0.316 µM, first compound 3.16 µM) 8.83%; (second compound 0.316 µM, first compound 10 µM) 6.71%. Further, the viability, T/C runs as follows: (second compound 1 µM, first compound 0.0316 µM) 122%; (second compound 1 µM, first compound 0.1 µM) 102%; (second compound 1 µM, first compound 0.316 µM) 60.6%; (second compound 1 µM, first compound 1 µM) 28.4%; (second compound 1 µM, first compound 3.16 µM) 10.5%; (second compound 1 µM, first compound 10 µM) 6.33%. Moreover, the viability, T/C was 102% (second compound 3.16 µM, first compound 0.0316 µM); 102% (second compound 3.16 µM, first compound 0.1 µM); 66.4% (second compound 3.16 µM, first compound 0.316 µM); 27% (second compound 3.16 µM, first compound 1 µM); 10.9% (second compound 3.16 µM, first compound 3.16 µM); 5.88% (second compound 3.16 µM, first compound 10 µM). Further, the viability, T/C (second compound 10 µM, first compound 0.0316 µM) was 98.1%; the viability, T/C (second compound 10 µM, first compound 0.1 µM) is 78.8%; the viability, T/C (second compound 10 µM, first compound 0.316 µM) is 48.2%; the viability, T/C (second compound 10 µM, first compound 1 µM) is 23.5%; the viability, T/C (second compound 10 µM, first compound 3.16 µM) was 9.1%; the viability, T/C (second compound 10 µM, first compound 10 µM) was 5.47%.

For the origin of these results see PubChem BioAssay AID1918936 (Molecular Pharmacology Branch, DTP, NCI, 2023).
